Starred links: 1 amine or outer side, 2 acyl side, 3 side chain; linkers in the order of their positions; H or OH if unused. Positions of bridges follow the written chain, without caps; N, C: chain ends. Non-standard residues stand in square brackets, D forms with d. Residues, ends and D or L forms follow the SMILES beside them. Chains are numbered I, II in the order given. Actinocin(9to1) = Cc1c2oc3c(C)ccc(C(=O)[*:1])c3nc-2c(C(=O)[*:2])c(N)c1=O; NMeV = CN[C@H](C(=O)O)C(C)C; Sar = CNCC(=O)O
Legend:
[1] = molecular target: T1, Solute carrier organic anion transporter family member 1B3 (Homo sapiens, UniProt Q9NPD5); details: chinese hamster, cho, 10 µM
T1 sequence (Q9NPD5 whole entry): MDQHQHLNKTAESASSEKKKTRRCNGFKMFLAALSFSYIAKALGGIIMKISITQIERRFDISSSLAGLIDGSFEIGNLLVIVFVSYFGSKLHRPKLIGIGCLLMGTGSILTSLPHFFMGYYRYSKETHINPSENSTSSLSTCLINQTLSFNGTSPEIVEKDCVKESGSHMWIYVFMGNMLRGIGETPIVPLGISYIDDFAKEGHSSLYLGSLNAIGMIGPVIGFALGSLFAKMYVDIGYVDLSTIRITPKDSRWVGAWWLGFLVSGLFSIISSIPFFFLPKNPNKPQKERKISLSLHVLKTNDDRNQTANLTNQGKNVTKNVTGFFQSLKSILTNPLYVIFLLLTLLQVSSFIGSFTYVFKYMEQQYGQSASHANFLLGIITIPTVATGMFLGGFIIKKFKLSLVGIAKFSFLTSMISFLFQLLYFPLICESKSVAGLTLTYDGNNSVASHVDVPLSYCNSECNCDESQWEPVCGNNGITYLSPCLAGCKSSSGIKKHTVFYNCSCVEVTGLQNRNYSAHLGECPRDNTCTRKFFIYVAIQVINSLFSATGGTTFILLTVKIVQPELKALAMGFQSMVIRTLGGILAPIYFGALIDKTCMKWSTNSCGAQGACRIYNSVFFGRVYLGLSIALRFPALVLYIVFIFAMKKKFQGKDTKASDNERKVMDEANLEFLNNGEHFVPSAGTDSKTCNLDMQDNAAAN

[2] = molecular target: T2, Solute carrier organic anion transporter family member 1B1 (Homo sapiens, UniProt Q9Y6L6); details: chinese hamster, cho, 10 µM
T2 sequence (Q9Y6L6 whole entry): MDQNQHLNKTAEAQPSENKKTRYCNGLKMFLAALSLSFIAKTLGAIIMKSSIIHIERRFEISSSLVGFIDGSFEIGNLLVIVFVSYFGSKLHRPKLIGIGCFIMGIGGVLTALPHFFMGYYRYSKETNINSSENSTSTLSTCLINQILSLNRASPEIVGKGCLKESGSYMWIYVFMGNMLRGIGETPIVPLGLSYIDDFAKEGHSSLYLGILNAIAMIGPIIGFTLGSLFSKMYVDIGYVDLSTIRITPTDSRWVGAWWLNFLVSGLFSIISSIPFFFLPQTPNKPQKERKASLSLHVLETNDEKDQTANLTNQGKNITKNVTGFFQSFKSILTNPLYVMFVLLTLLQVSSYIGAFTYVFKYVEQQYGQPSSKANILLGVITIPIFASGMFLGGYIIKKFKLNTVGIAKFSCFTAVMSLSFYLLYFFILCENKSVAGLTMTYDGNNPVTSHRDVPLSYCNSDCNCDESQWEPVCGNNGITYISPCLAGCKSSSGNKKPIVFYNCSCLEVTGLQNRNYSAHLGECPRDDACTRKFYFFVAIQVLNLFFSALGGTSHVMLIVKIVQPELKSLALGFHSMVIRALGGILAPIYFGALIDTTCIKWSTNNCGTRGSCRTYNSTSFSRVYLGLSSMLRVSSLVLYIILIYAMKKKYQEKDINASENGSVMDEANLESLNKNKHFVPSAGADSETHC

residual activity [1] [%]	residual activity [2] [%]	SMILES
99.63	73	Cl.Clc1cccc(Cl)c1NC1=NCCN1 [CLONIDINE HYDROCHLORIDE]
107.3	113.6	C[C@@H]1CCC[C@H](C)N1NC(=O)c1ccc(Cl)c(S(N)(=O)=O)c1 [CLOPAMIDE]
91.88	154.4	Cc1nc(C)c(Cl)c(O)c1Cl [CLOPIDOL]
85.3	109.5	CC(=O)OC1CCC23CC1(C)CCC2C(C)(C)CC3OC(C)=O (configuration not stated) [CLOVANEDIOL DIACETATE]
63.22	47.3	Cc1onc(-c2ccccc2Cl)c1C(=O)N[C@@H]1C(=O)N2[C@@H]1SC(C)(C)[C@@H]2C(=O)[O-].O.[Na+] [CLOXACILLIN SODIUM]
93.36	104	Oc1ccc(Cl)c2cccnc12 [CLOXYQUIN]
83.25	118.8	C=C[C@@]1(C)CC(=O)[C@]2(O)[C@@]3(C)[C@@H](O)CCC(C)(C)[C@@H]3[C@H](O)[C@H](OC(C)=O)[C@@]2(C)O1 [COLFORSIN]
111.5	100.9	C[C@H]1[C@H]2CC[C@H]3[C@@H]4CC=C5C[C@@H](N(C)C)CC[C@]5(C)[C@H]4CC[C@]23CN1C [CONESSINE]
66.12	49.7	COc1cc(/C=C/CO)ccc1O [CONIFERYL ALCOHOL]
150.5	106.5	COc1cc2cc3c4cc(OC)c(OC)cc4cc[n+]3c(C)c2cc1OC.[Cl-] [CORALYNE]
98.8	103.3	CC(=O)OCC(=O)[C@@]1(O)CC[C@H]2[C@@H]3CCC4=CC(=O)CC[C@]4(C)[C@H]3C(=O)C[C@@]21C [CORTISONE ACETATE]
69.54	76.37	C[C@]12CCC(=O)C=C1CC[C@@H]1[C@@H]2C(=O)C[C@@]2(C)[C@H]1CC[C@]2(O)C(=O)CO [CORTISONE]
48.4	95.2	CC(=O)OC[C@H]1O[C@@H](Oc2cc(OC(C)=O)c3c(=O)cc(-c4ccc(OC(C)=O)cc4)oc3c2)[C@H](OC(C)=O)[C@@H](OC(C)=O)[C@@H]1OC(C)=O [COSMOSIIN HEXAACETATE]
103	106.5	CN1C(=O)CC[C@H]1c1cccnc1 [COTININE]
119.3	110.4	COc1ccccc1/C=C/C(=O)O [COUMARINIC ACID METHYL ETHER]
99.05	116.6	O=c1ccc2ccccc2o1 [COUMARIN]
65.53	60.87	C=C1C(=O)O[C@H]2C[C@@H]1C(OC(C)=O)C/C(C)=C/CC/C(C)=C/CC[C@@]2(C)O (some centres not stated) [CRASSIN ACETATE]

residual activity [1] [%]	residual activity [2] [%]	SMILES
93.64	105.7	CN1CC(=O)NC1=N [CREATININE]
94.62	101.2	O=C([O-])c1cc(=O)c2c(OCC(O)COc3cccc4oc(C(=O)[O-])cc(=O)c34)cccc2o1.[Na+].[Na+] [CROMOLYN SODIUM]
103	88.13	CN1CCN(C(c2ccccc2)c2ccccc2)CC1 [CYCLIZINE]
102.1	85.24	CN(C)CCC=C1c2ccccc2C=Cc2ccccc21.Cl [CYCLOBENZAPRINE HYDROCHLORIDE]
127.5	108.2	NC1=NCCN1CC(=O)O [CYCLOCREATINE]
108.5	99.09	NC1(C(=O)O)CCCC1 [CYCLOLEUCINE]
100.2	87.23	CN(C)CCOC(=O)C(c1ccccc1)C1(O)CCCC1.Cl (configuration not stated) [CYCLOPENTOLATE HYDROCHLORIDE]
89.2	111.3	Cl.Cl.NCCSSCCN [CYSTAMINE DIHYDROCHLORIDE]
95.76	78.64	Nc1ccn([C@@H]2O[C@H](CO)[C@@H](O)[C@@H]2O)c(=O)n1 [CYTARABINE]
114	99.44	Nc1ccn([C@@H]2O[C@H](CO)[C@@H](O)[C@H]2O)c(=O)n1 [CYTIDINE]
84.71	73.08	N[C@H](Cc1ccccc1)C(=O)O [D-PHENYLALANINE]
90.13	97.65	CN(C)/N=N/c1[nH]cnc1C(N)=O [DACARBAZINE]
106.6	103.5	COC(=O)c1c(Cl)c(Cl)c(C(=O)OC)c(Cl)c1Cl [DACTHAL]
85.16	57.98	Cc1c2oc3c(C)ccc(C(=O)N[C@@H]4C(=O)N[C@H](C(C)C)C(=O)N5CCC[C@H]5C(=O)N(C)CC(=O)N(C)[C@@H](C(C)C)C(=O)O[C@@H]4C)c3nc-2c(C(=O)N[C@@H]2C(=O)N[C@H](C(C)C)C(=O)N3CCC[C@H]3C(=O)N(C)CC(=O)N(C)[C@@H](C(C)C)C(=O)O[C@@H]2C)c(N)c1=O [DACTINOMYCIN] (I: T[dV]P[Sar][NMeV] / II: T[dV]P[Sar][NMeV]; ester I:1-I:C, II:1-II:C; linker I:N-II:N via Actinocin(9to1))
103.8	139.3	O=c1c(-c2ccc(O)cc2)coc2cc(O)ccc12 [DAIDZEIN]
246.6	114.1	C=CC(C1=CC(=O)C(OC)=CC1=O)c1ccc(O)cc1 (configuration not stated) [DALBERGIONE, 4-METHOXY-4'-HYDROXY-]
269.8	72.19	C=CC(C1=CC(=O)C=CC1=O)c1ccccc1 (configuration not stated) [DALBERGIONE]

SMILES	residual activity [1] [%]	residual activity [2] [%]
Cl.Clc1ccc(C(OCCN2CCCCC2)c2ccccc2)cc1 (configuration not stated) [CLOPERASTINE HYDROCLORIDE]	89.01	53.44
COC(=O)[C@H](c1ccccc1Cl)N1CCc2sccc2C1.O=S(=O)(O)O [CLOPIDOGREL BISULFATE]	96.14	145.3
CN1CCN(C2=Nc3cc(Cl)ccc3Nc3ccccc32)CC1 [CLOZAPINE]	93.38	86.29
COc1cc2c(c(OC)c1OC)-c1ccc(=O)c(O)cc1[C@@H](NC(C)=O)CC2 [COLCHICEINE]	109.6	124
COc1cc2c(c(OC)c1OC)-c1ccc(OC)c(=O)cc1[C@@H](NC(C)=O)CC2 [COLCHICINE]	101	75.12
CCC[C@H]1CCCCN1 [CONIINE]	100.1	105.3
C[C@@H]1O[C@@H](O[C@H]2CC[C@]3(C=O)[C@H]4CC[C@]5(C)[C@@H](C6=CC(=O)OC6)CC[C@]5(O)[C@@H]4CC[C@]3(O)C2)[C@H](O)[C@H](O)[C@H]1O [CONVALLATOXIN]	95.81	102.3
COc1c2c(cc3c1OCO3)CC[N+](C)=C2.[Cl-] [COTARNINE CHLORIDE]	93.29	85.95
CCOP(=S)(OCC)Oc1ccc2c(C)c(Cl)c(=O)oc2c1 [COUMAPHOS]	124.8	99.64
CO[C@H]1C[C@H](O[C@H]2CC[C@]3(C=O)[C@H]4CC[C@]5(C)[C@@H](C6=CC(=O)OC6)CC[C@]5(O)[C@@H]4CC[C@]3(O)C2)O[C@H](C)[C@H]1O [CYMARIN]	87.59	87.74
CC(=O)[C@@]1(O)CC[C@H]2[C@@H]3C=C(Cl)C4=CC(=O)[C@@H]5C[C@@H]5[C@]4(C)[C@H]3CC[C@@]21C [CYPROTERONE]	112.2	30.6
O=c1cccc2n1C[C@@H]1CNC[C@H]2C1 [CYTISINICLINE]	106.2	99.71

— ChEMBL document CHEMBL3039007, “Structure-based identification of OATP1B1/3 inhibitors” (Mol Pharmacol, 2013)
